Key:
[1] = tested on: motor neurons of the facial nucleus; experiment: Test of survival of the motor neurons after sectioning the facial nerve in rats aged 4 days; type: in vivo, rat; details: immature rats, facial nerve section, treated for 7 days
Method: Study of the Neuroprotective Activity
Test of Survival of the Motor Neurons after Sectioning the Facial Nerve in Rats Aged 4 Days
After lesion of the facial nerve in immature rats, the motor neurons of the facial nucleus experience neuronal death by apoptosis. Neuronal survival is evaluated using neuronal counting and histological methods.
Immature rats aged 4 days are anaesthetized with pentobarbital (3 mg/kg by the i.p. route). The right facial nerve is exposed and sectioned at its outlet from the stylomastoid foramen. After waking up, the young rats are returned to their mothers and are treated for 7 days with one or two daily administrations, by the oral or intraperitoneal route, at doses ranging from 1 to 10 mg/kg.
7 days after the lesion, the animals are decapitated and the brains are frozen in isopentane at −40° C. The entire facial […] is cut with a cryostat into sections with a width of 10 μm. The motor neurons are stained with cresyl violet and counted using the Histo™ software (Biocom™)

[2] = molecular target: T1, peripheral-type benzodiazepine receptors (PBR or p sites) (Rattus norvegicus, UniProt P16257); experiment: Binding of [3H]Ro5-4864 to peripheral-type benzodiazepine receptors in rat kidney membranes
T1 construct: After decapitation, the kidney is removed and the tissue is homogenized; from tissue; host or cells: kidney membrane homogenate of male Sprague-Dawley rats
T1 sequence (P16257 whole entry): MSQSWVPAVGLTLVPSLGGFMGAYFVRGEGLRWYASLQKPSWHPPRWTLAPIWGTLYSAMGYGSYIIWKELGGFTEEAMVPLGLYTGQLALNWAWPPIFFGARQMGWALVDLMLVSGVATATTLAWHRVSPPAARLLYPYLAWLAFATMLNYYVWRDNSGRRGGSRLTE

Compound | melting point [°C] | % increase in the survival of the neurons (10 mg/kg po) [1] [%] | IC50 [2] [nM]
CCN(CC)C(=O)Oc1c2c(nn1-c1ccncc1)CCc1cc(Cl)ccc1-2.Cl | 250 to 251 |  | 
CC(C)N(C(=O)Oc1nn(-c2ccncc2)c2c1-c1ccc(Cl)cc1CC2)C(C)C.Cl | 146 to 148 |  | 
CCN(CC)C(=O)Oc1c2c(nn1-c1ccccc1)CCc1cc(Cl)ccc1-2 [compound 14] |  | 38 | 1.6
CCN(CC)C(=O)Oc1c2c(nn1-c1ccc(F)cc1)CCc1ccccc1-2 [compound 20] |  | 59 | 2.8
CCN(CC)C(=O)Oc1c2c(ccc3cc(Cl)ccc32)nn1-c1ccc(F)cc1 [compound 56] |  | 74 | 1.4

From patent publication US8258168B2, “2H or 3H-benzo[E]indazol-1-YL carbamate derivatives, the preparation and therapeutic use thereof” (Sanofi, priority 2004, dated 2012)
